The source of these data is patent publication US20250388565A1, “ESTROGEN RECEPTOR ALPHA DEGRADERS AND METHODS OF USE THEREOF” (Relay Therapeutics, Inc., priority 2022, published 2025).

Each structure is given as a SMILES string.

This test addresses T1, ERα protein (HiBiT-tagged) in ESR1_HiBiT KI MCF7 cells (Homo sapiens, UniProt P03372).
T1 sequence (P03372 1-595): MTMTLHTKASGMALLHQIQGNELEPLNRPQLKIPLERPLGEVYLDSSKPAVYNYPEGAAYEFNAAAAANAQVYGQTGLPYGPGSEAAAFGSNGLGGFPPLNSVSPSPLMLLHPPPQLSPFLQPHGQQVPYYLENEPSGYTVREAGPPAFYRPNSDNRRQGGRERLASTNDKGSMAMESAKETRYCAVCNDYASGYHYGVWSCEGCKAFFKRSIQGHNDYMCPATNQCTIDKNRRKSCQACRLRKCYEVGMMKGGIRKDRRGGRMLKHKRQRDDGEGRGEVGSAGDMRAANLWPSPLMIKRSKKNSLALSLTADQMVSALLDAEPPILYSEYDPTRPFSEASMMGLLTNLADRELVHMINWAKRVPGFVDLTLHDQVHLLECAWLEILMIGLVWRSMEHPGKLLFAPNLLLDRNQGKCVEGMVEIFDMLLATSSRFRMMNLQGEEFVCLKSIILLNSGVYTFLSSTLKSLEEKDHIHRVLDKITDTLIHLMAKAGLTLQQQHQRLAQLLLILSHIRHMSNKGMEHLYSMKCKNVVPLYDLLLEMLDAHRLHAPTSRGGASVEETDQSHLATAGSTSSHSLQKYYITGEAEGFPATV
As to the kind of experiment: Nano Glo HiBiT Lytic Degradation Assay. It is filed as cell-based. To be noted: 6 hours with compound, 14-point dose response 1:3, bell-shape curve fit, half-maximal effect of first Hill model, read-out: MCF7 ESR1 HiBiT - (DC50). The essentials: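 ESR1_HiBiT knock-in MCF7 cells were seeded 24 h before treatment, then exposed to compounds for 6 h at 37° C (14-point 1:3 curves, 10 mM top stock, 0.1% DMSO final, duplicates). HiBiT-ERα was read by lytic LgBiT luminescence, background-subtracted and normalized to DMSO. DC50 was taken from the half-maximal point of the first Hill component of a bell-shaped fit.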
Background: With HiBiT, luminescence reflects the tagged protein that the partner subunit can reach.
For orientation: DC50 means the concentration giving 50% degradation. Turning to `C[C@@H]1CN(c2ccc3c(c2)CN([C@H]2CCC(=O)NC2=O)C3=O)CCN1CC1CCN(c2ccc([C@H]3c4ccc(O)cc4CC[C@H]3c3ccccc3)cc2)CC1` (single isomer, unassigned) [II-15], the half-maximal degradation concentration (DC50) was no less than 10000 nM.

As for `Cn1c(=O)n([C@H]2CCC(=O)NC2=O)c2ccc(N3CCN(CC4CCN(c5ccc([C@@H]6c7ccc(O)cc7C(F)(F)C[C@@H]6c6ccccc6)cc5)CC4)CC3)cc21` (single isomer, unassigned) [Compound I-277], the DC50 came out at 0.3 nM.

Regarding `O=C1CC[C@H](N2Cc3cc(N4CCN(CC5CCN(c6ccc([C@@H]7c8ccc(O)cc8COC78CCCCC8)cc6)CC5)CC4)ccc3C2=O)C(=O)N1` [Compound I-123, (S)-3-(5-(4-((1-(4-((R)-7′-hydroxyspiro[cyclohexane-1,3′-isochroman]-4′-yl)phenyl)piperidin-4-yl)methyl)piperazin-1-yl)-1-oxoisoindolin-2-yl)piperidine-2,6-dione], the DC50 was 0.31 nM.

As for `O=C1CC[C@H](N2Cc3cc(N4CCN(CC5CCN(c6ccc([C@H]7c8ccc(O)cc8C(F)(F)C[C@H]7c7ccccc7)cc6)CC5)CC4)ccc3C2=O)C(=O)N1` [Compound I-13], the DC50 worked out at 13 nM.

As for `Cc1cccc([C@H]2CCc3cc(O)ccc3[C@H]2c2ccc(N3CCC(CN4CCN(c5ccc6c(c5)CN([C@H]5CCC(=O)NC5=O)C6=O)CC4)CC3)cc2)c1` (single isomer, unassigned) [II-28], the DC50 came out at 20 nM.

In the case of `O=C1CCC(N2Cc3cc([C@H]4CCN(CC5CCN(c6ccc([C@@H]7c8ccc(O)cc8CC[C@@H]7c7ccccc7)cc6)CC5)C[C@H]4O)ccc3C2=O)C(=O)N1` (single isomer, unassigned) [II-108], the 50% degradation concentration (DC50) came to 0.45 nM.

`O=C1CCN(c2ccc(N3CC[C@@]4(CCN(CC5CCN(c6ccc([C@@H]7c8ccc(O)cc8CC[C@@H]7c7ccccc7)cc6)CC5)C4)C3)cc2)C(=O)N1` (single isomer, unassigned) [Compound I-288]: the DC50 is no less than 10000 nM.

Consider `O=C1CCC(c2ccc(N3CCC4(CCN(CC5CCN(c6ccc([C@@H]7c8ccc(O)cc8CC[C@@H]7c7ccccc7)cc6)CC5)CC4)CC3)cc2)C(=O)N1` (stereo partly drawn) [Compound I-180, 3-[4-[9-[[1-[4-[(1R,2S)-6-hydroxy-2-phenyl-tetralin-1-yl]phenyl]-4-piperidyl]methyl]-3,9-diazaspiro[5.5]undecan-3-yl]phenyl]piperidine-2,6-dione], for which the DC50 came to 1.3 nM.

In the case of `Cn1ccc([C@H]2CCc3cc(O)ccc3[C@H]2c2ccc(N3CCC(CN4CCN(c5ccc6c(c5)CN([C@H]5CCC(=O)NC5=O)C6=O)CC4)CC3)cc2)n1` (single isomer, unassigned) [Compound I-28], the DC50 was no less than 10000 nM.

Turning to `CC[C@@H]1CCc2cc(O)ccc2[C@@H]1c1ccc(N2CCC(CN3CCN(c4ccc5c(c4)CN([C@H]4CCC(=O)NC4=O)C5=O)CC3)CC2)cc1` (single isomer, unassigned) [Compound I-112], the DC50 was found to be 0.14 nM.

Regarding `N#Cc1ccc2c(c1)CC[C@H](c1ccccc1)[C@@H]2c1ccc(N2CCC(CN3CCN(c4ccc5c(c4)CN([C@H]4CCC(=O)NC4=O)C5=O)CC3)CC2)cc1` [Compound I-49, (5R,6S)-5-(4-(4-((4-(2-((S)-2,6-dioxopiperidin-3-yl)-1-oxoisoindolin-5-yl)piperazin-1-yl)methyl)piperidin-1-yl)phenyl)-6-phenyl-5,6,7,8-tetrahydronaphthalene-2-carbonitrile], the DC50 was no less than 10000 nM.

As for `O=C1CC[C@H](c2ccc(N3CCC4(CCN(CC5CCN(c6ccc([C@@H]7c8ccc(O)cc8CC[C@@H]7c7ccccc7)cc6)CC5)C4)CC3)cc2)C(=O)N1` (single isomer, unassigned) [Compound I-283], the DC50 was 5 nM.

As for `O=C1CC[C@H](N2Cc3cc(N4CCN(CC5CCN(c6ccc([C@H]7c8ccc(O)cc8CO[C@H]7C7CC7)cc6)CC5)CC4)ccc3C2=O)C(=O)N1` (single isomer, unassigned) [Compound I-243], the DC50 is 3 nM.

Turning to `C[C@@H](C1CC1)[C@H]1CC(F)(F)c2cc(O)ccc2[C@H]1c1ccc(N2CCC(CN3CCN(c4ccc5c(c4)CN([C@H]4CCC(=O)NC4=O)C5=O)CC3)CC2)cc1` (single isomer, unassigned) [Compound I-227], the half-maximal degradation concentration (DC50) stood at 4 nM.

Take `O=C1CCC(n2cc3cc(N4CCN(CC5CCN(c6ccc([C@@H]7c8ccc(O)cc8CO[C@@H]7c7ccccc7)cc6)CC5)CC4)ccc3n2)C(=O)N1` (stereo partly drawn) [Compound I-397, 3-(5-(4-((1-(4-((3S,4R)-7-hydroxy-3-phenylisochroman-4-yl)phenyl)piperidin-4-yl)methyl)piperazin-1-yl)-2H-indazol-2-yl)piperidine-2,6-dione]: the DC50 is 0.61 nM.

Consider `O=C1CC[C@H](N2Cc3cc(N4CCN(CC5CCN(c6cc(F)c(C7=C(c8ccccc8)CCc8cc(O)ccc87)c(F)c6)CC5)CC4)ccc3C2=O)C(=O)N1` [Compound I-10, (S)-3-(5-(4-((1-(3,5-difluoro-4-(6-hydroxy-2-phenyl-3,4-dihydronaphthalen-1-yl)phenyl)piperidin-4-yl)methyl)piperazin-1-yl)-1-oxoisoindolin-2-yl)piperidine-2,6-dione], for which the DC50 came to 16 nM.

With `O=C1CC[C@H](N2Cc3cc(N4CCN(CC5CCN(c6ccc([C@@H]7c8ccc(O)cc8CC[C@@H]7c7ccccc7)nc6)CC5)CC4)ccc3C2=O)C(=O)N1` [II-78], the DC50 was determined as 1.37 nM.

As to `O=C1CCC(c2cccc(N3CCC4(CCN(CC5CCN(c6ccc([C@@H]7c8ccc(O)cc8CC[C@@H]7c7ccccc7)cc6)CC5)CC4)CC3)c2)C(=O)N1` (stereo partly drawn) [Compound I-183, 3-(3-(9-((1-(4-((1R,2S)-6-hydroxy-2-phenyl-1,2,3,4-tetrahydronaphthalen-1-yl)phenyl)piperidin-4-yl)methyl)-3,9-diazaspiro[5.5]undecan-3-yl)phenyl)piperidine-2,6-dione], the DC50 was no less than 10000 nM.

Regarding `O=C1CC[C@H](N2Cc3cc(N4CCN(CC5CCN(c6ccc([C@H]7c8ccc(O)cc8CO[C@@H]7c7ccc(O)cc7)cc6)CC5)CC4)ccc3C2=O)C(=O)N1` (single isomer, unassigned) [Compound I-359, (S)-3-(5-(4-((1-(4-((3R*,4R*)-7-hydroxy-3-(4-hydroxyphenyl)isochroman-4-yl)phenyl)piperidin-4-yl)methyl)piperazin-1-yl)-1-oxoisoindolin-2-yl)piperidine-2,6-dione], the DC50 came out at 0.16 nM.

In the case of `O=C1CC[C@H](N2Cc3cc(N4CCN(CC5CCN(c6ccc([C@H]7c8ccc(O)cc8CO[C@H]7c7ccc(C(F)(F)F)cc7)cc6)CC5)CC4)ccc3C2=O)C(=O)N1` [Compound I-350, (S)-3-(5-(4-((1-(4-((3R,4S)-7-hydroxy-3-(4-(trifluoromethyl)phenyl)isochroman-4-yl)phenyl)piperidin-4-yl)methyl)piperazin-1-yl)-1-oxoisoindolin-2-yl)piperidine-2,6-dione], the DC50 was determined as 20 nM.

Take `Cn1c(=O)n([C@@H]2CCC(=O)NC2=O)c2ccc(N3CCN(CC4CCN(c5ccc([C@@H]6c7ccc(O)cc7CO[C@@H]6c6ccccc6)cc5)CC4)CC3)cc21` (single isomer, unassigned) [Compound I-388]: the DC50 was 40 nM.

For the compound `COc1cc(N2CCC(CN3CCN(c4ccc5c(c4)CN([C@H]4CCC(=O)NC4=O)C5=O)CC3)CC2)ccc1[C@@H]1c2ccc(O)cc2CC[C@@H]1c1ccccc1` [Compound I-144, (S)-3-(5-(4-((1-(4-((1S,2S)-6-hydroxy-2-phenyl-1,2,3,4-tetrahydronaphthalen-1-yl)-3-methoxyphenyl)piperidin-4-yl)methyl)piperazin-1-yl)-1-oxoisoindolin-2-yl)piperidine-2,6-dione], the DC50 was 0.37 nM.

With `Cn1nccc1[C@@H]1CCc2cc(O)ccc2[C@@H]1c1ccc(N2CCC(CN3CCN(c4ccc5c(c4)CN([C@H]4CCC(=O)NC4=O)C5=O)CC3)CC2)cc1` (single isomer, unassigned) [Compound I-25], the DC50 is 0.02 nM.

In the case of `O=C1CC[C@H](N2Cc3cc(N4CCN(CC5CCN(c6ccc([C@H]7c8ccc9[nH]ncc9c8CC[C@H]7c7ccccc7)cc6)CC5)CC4)ccc3C2=O)C(=O)N1` (single isomer, unassigned) [Compound I-44], the half-maximal degradation concentration (DC50) stood at 7 nM.

For the compound `Cc1cc(F)ccc1[C@H]1OCc2cc(O)ccc2[C@H]1c1ccc(N2CCC(CN3CCN(c4ccc5c(c4)CN([C@H]4CCC(=O)NC4=O)C5=O)CC3)CC2)cc1` [Compound I-371, (S)-3-(5-(4-((1-(4-((3S,4R)-3-(4-fluoro-2-methylphenyl)-7-hydroxyisochroman-4-yl)phenyl)piperidin-4-yl)methyl)piperazin-1-yl)-1-oxoisoindolin-2-yl)piperidine-2,6-dione], the DC50 was determined as 0.17 nM.

`O=C1CC[C@H](N2Cc3cc(N4CCN(CC5CCN(c6ccc([C@@H]7c8ccc(O)cc8CO[C@@H]7CC7CCCC7)cc6)CC5)CC4)ccc3C2=O)C(=O)N1` (single isomer, unassigned) [Compound I-232]: the DC50 stood at 0.92 nM.
